Laboratory results taken from article PMC7160231, “Identification and Immobilization of an Invertase With High Specific Activity and Sucrose Tolerance Ability of Gongronella sp. w5 for High Fructose Syrup Preparation” (Frontiers in Microbiology, 2020).

Legend:
CBM24DG-GspInv = test system: T1, CBM24DG-GspInv; assay: initial rate, released glucose by glucose oxidase method, Michaelis-Menten fit; assay type: biochemical, Gongronella sp. w5; details: 50 mM citrate-phosphate pH 5.0, 45°C, 1 mM-2 M sucrose; free (not immobilised) fusion enzyme
T1 construct: Clostridium thermocellum CBM24 fused to N-terminus of GspInv; secreted from K. pastoris GS115 (pPIC9K)
Source text: initial rate, released glucose by glucose oxidase method, Michaelis-Menten fit on CBM24DG-GspInv

GspInv = test system: T2, GspInv; assay: as above; assay type: biochemical, Gongronella sp. w5; details: 50 mM citrate-phosphate pH 5.0, 45°C, 1 mM-2 M sucrose
T2 construct: secreted from Komagataella (Pichia) pastoris GS115 with alpha-factor signal of pPIC9K; cDNA 1,761 bp; primer-encoded N-terminus MVLADP, C-terminus FNRP; catalytic D46, D173, E251
Source text: initial rate, released glucose by glucose oxidase method, Michaelis-Menten fit on GspInv

OC[C@H]1O[C@@](CO)(O[C@H]2O[C@H](CO)[C@@H](O)[C@H](O)[C@H]2O)[C@@H](O)[C@@H]1O [sucrose]
Km (CBM24DG-GspInv): 10.3 ± 1.2 mM
Km (GspInv): 8.7 ± 1.1 mM
